Laboratory results from patent US20230391778A1, “INDOLIN-2-ONE OR PYRROLO -PYRIDIN -2 -ONE DERIVATIVES” (Hoffmann-La Roche Inc., priority 2014, published 2023).
Structures can show the parent of a compound that is named as a salt.

Biological target: T1, mouse ENT-1 transporter (Mus musculus, UniProt Q9JIM1)
T1 construct: expressed in transfected cells
T1 sequence (Q9JIM1 1-460): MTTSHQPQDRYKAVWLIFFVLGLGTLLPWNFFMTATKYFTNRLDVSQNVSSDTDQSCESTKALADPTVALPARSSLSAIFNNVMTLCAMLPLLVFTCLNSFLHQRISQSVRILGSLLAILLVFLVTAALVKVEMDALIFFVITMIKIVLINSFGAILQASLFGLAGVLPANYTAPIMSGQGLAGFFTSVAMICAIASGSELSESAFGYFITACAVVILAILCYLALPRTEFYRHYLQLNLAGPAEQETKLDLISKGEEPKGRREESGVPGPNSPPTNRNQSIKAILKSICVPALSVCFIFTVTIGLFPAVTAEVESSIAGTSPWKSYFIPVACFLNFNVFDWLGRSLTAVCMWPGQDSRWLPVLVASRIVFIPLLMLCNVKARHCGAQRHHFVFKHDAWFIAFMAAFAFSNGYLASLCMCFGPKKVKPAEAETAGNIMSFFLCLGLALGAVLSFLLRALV
Test: Measure of adenosine transport activity (ENT1 adenosine uptake inhibition)
Assay type: cell-based
Settings: stable cells expressing mouse ENT-1, [2,8-3H]-adenosine 6 nM, 20 min
Procedure: To measure adenosine transport activity of ENT-1 mammalian cells, stable cells expressing the mouse ENT-1 transporter were plated on day 1 in 96-well culture plates at the density of 60,000 cells/well, in complete DMEM/F12 medium supplemented with glutamax, 10% FBS and 10 μg/ml puromycin. On day 2, the medium was aspirated and the cells were washed twice with uptake buffer (10 mM Hepes-Tris, pH 7.4 containing 150 mM NaCl, 1 mM CaCl2), 2.5 mM KCl, 2.5 mM MgSO4, 10 mM D-glucose) (UB). For inhibition experiments, cells were then incubated at RT with various concentrations of compounds with 1% DMSO final. Non-specific uptake was defined in the presence of 10 μM S-(4-Nitrobenzyl)-6-thioinosine (NBTI, Sigma Cat #N2255).
The plates were then incubated for 20 min with gentle shaking and the reaction was stopped by aspiration of the mixture and washing (three times) with ice-cold UB. The cells were lysed by the addition of scintillation liquid, shaken 3 hours and the radioactivity in the cells was estimated using a microplates scintillation counter (TopCount NXT, Packard).

SMILES	IC50 [nM]
Cc1cnc(N2C(=O)C(C)(C)c3ccc(-c4cnc(C)nc4)cc32)cn1 [Example 57, 3,3-Dimethyl-1-(5-methylpyrazin-2-yl)-6-(2-methylpyrimidin-5-yl)indolin-2-one]	27
Cc1ncc(-c2ccc3c(c2)N(c2nc(C)ns2)C(=O)C3(C)C)cn1 [Example 123, 3,3-dimethyl-1-(3-methyl-1,2,4-thiadiazol-5-yl)-6-(2-methylpyrimidin-5-yl)indolin-2-one]	694
Cc1ncc(-c2ccc3c(c2)N(c2cncnc2C)C(=O)C3(C)C)cn1 [Example 84, 3,3-dimethyl-6-(2-methylpyrimidin-5-yl)-1-(4-methylpyrimidin-5-yl)indolin-2-one]	15600
Cc1ncc(-c2ccc3c(c2)N(c2cnccc2C)C(=O)C3(C)C)cn1 [Example 99, 3,3-dimethyl-1-(4-methylpyridin-3-yl)-6-(2-methylpyrimidin-5-yl)indolin-2-one]	4330
Cc1ncc(-c2ccc3c(c2)N(c2ncccn2)C(=O)C3(C)C)cn1 [Example 79, 3,3-dimethyl-6-(2-methylpyrimidin-5-yl)-1-(pyrimidin-2-yl)indolin-2-one]	3880
Cc1ncc(-c2ccc3c(c2)N(c2cnc(Cl)cn2)C(=O)C3(C)C)cn1 [Example 117, 1-(5-chloropyrazin-2-yl)-3,3-dimethyl-6-(2-methylpyrimidin-5-yl)indol-2-one]	35
Cc1ncc(-c2ccc3c(c2)N(c2ccc(C)[n+]([O-])n2)C(=O)C3(C)C)cn1 (single isomer, unassigned) [Example 106, 3-(3,3-dimethyl-6-(2-methylpyrimidin-5-yl)-2-oxoindolin-1-yl)-6-methylpyridazine 1-oxide]	481
Cc1ncc(-c2ccc3c(c2)N(c2cncc(C#N)c2)C(=O)C3(C)C)cn1 [Example 143, 5-(3,3-dimethyl-6-(2-methylpyrimidin-5-yl)-2-oxoindolin-1-yl)nicotinonitrile]	70
COCc1ccc(N2C(=O)C(C)(C)c3ccc(-c4cnc(C)nc4)cc32)cn1 [Example 129, 1-(6-(methoxymethyl)pyridin-3-yl)-3,3-dimethyl-6-(2-methylpyrimidin-5-yl)indolin-2-one]	887
Cc1cccc(-c2ccc3c(c2)N(c2cncc(C)n2)C(=O)C3(C)C)n1 [Example 135, 3,3-dimethyl-1-(6-methylpyrazin-2-yl)-6-(6-methyl-2-pyridyl)indolin-2-one]	2280
Cc1ncc(-c2ccc3c(c2)N(c2cn(C)c(C)n2)C(=O)C3(C)C)cn1 [Example 65, 1-(1,2-Dimethyl-1H-imidazol-4-yl)-3,3-dimethyl-6-(2-methylpyrimidin-5-yl)indolin-2-one]	6740
Cc1ncc(-c2ccc3c(c2)N(c2ccc(C4CC4)nn2)C(=O)C3(C)C)cn1 [Example 134, 1-(6-cyclopropylpyridazin-3-yl)-3,3-dimethyl-6-(2-methylpyrimidin-5-yl)indolin-2-one]	36
Cc1ncc(-c2ccc3c(c2)N(c2cncc(F)c2)C(=O)C3(C)C)cn1 [Example 142, 1-(5-fluoropyridin-3-yl)-3,3-dimethyl-6-(2-methylpyrimidin-5-yl)indolin-2-one]	765
Cc1cncc(N2C(=O)C(C)(C)c3ccc(-c4cncc(F)c4)cc32)n1 [Example 146, 6-(5-fluoro-3-pyridyl)-3,3-dimethyl-1-(6-methylpyrazin-2-yl)indolin-2-one]	2130
Cc1cc(N2C(=O)C(C)(C)c3ccc(-c4cnc(C)nc4)cc32)[nH]n1 [Example 86, 3,3-dimethyl-1-(3-methyl-1H-pyrazol-5-yl)-6-(2-methylpyrimidin-5-yl)indolin-2-one hydrochloride]	423
Cc1cnc(N2C(=O)C(C)(C)c3ccc(-c4cncc(F)c4)cc32)cn1 [Example 150, 6-(5-fluoro-3-pyridyl)-3,3-dimethyl-1-(5-methylpyrazin-2-yl)indolin-2-one]	1480
Cc1ncc(-c2ccc3c(c2)N(c2cncc(CO)c2)C(=O)C3(C)C)cn1 [Example 153, 1-(5-(hydroxymethyl)pyridin-3-yl)-3,3-dimethyl-6-(2-methylpyrimidin-5-yl)indolin-2-one]	291
Cc1ncc(-c2ccc3c(c2)N(c2ncc(C)[nH]2)C(=O)C3(C)C)cn1 [Example 88, 3,3-dimethyl-1-(4-methyl-1H-imidazol-2-yl)-6-(2-methylpyrimidin-5-yl)indolin-2-one]	7660
Cc1cnc(N2C(=O)C(C)(C)c3ccc(-c4ccnc(C)c4)cc32)cn1 [Example 147, 3,3-dimethyl-1-(5-methylpyrazin-2-yl)-6-(2-methyl-4-pyridyl)indolin-2-one]	9000
Cc1ncc(-c2ccc3c(c2)N(c2cnc(CN)nc2)C(=O)C3(C)C)cn1 [Example 103, 1-[2-(aminomethyl)pyrimidin-5-yl]-3,3-dimethyl-6-(2-methylpyrimidin-5-yl)indol-2-one]	18400
Cc1cc(N2C(=O)C(C)(C)c3ccc(-c4cnccc4F)cc32)ccn1 [Example 24, 6-(4-Fluoropyridin-3-yl)-3,3-dimethyl-1-(2-methylpyridin-4-yl)indolin-2-one]	8790
Cc1ncc(-c2ccc3c(c2)N(c2cc[nH]n2)C(=O)C3(C)C)cn1 [Example 55, 3,3-Dimethyl-6-(2-methylpyrimidin-5-yl)-1-(1H-pyrazol-3-yl)indolin-2-one]	2410
Cc1ncc(-c2ccc3c(c2)N(c2ccccn2)C(=O)C3(C)C)cn1 [Example 44, 3,3-Dimethyl-6-(2-methylpyrimidin-5-yl)-1-(pyridin-2-yl)indolin-2-one]	1400
